“Also recorded” adds a separate entry of the source.
How the values were obtained:
ischemic myocardium = test: Infarct size after ischemia in hearts overexpressing iPLA2β; set-up: species or system mouse; conditions: iPLA2β overexpression, BEL treatment
Description: Control or iPLA2β transgenic mice were perfused retrograde through the aorta for an equilibration interval prior to the induction of ischemia by ligating the LAD coronary artery. After 15 min. of ischemia the tissue was fixed and the magnitude of infarcted tissue was assessed on a 1 to 5 scale. […] Moreover, the deliberate overexpression of iPLA2β increases infarct size which can be reduced with BEL treatment. Thus the discovery clearly for the first time defines a evidences iPLA2β as a pharmacologic target in any aspect of phospholipase work by discriminating iPLA2β activity from other phospholipases by the traditional pharmacologic criteria of knockdown, inhibition and rescue by inhibition of the species-specific knock down pathophysiology. The evidence is this proof of concept thereby formally provides an intact, functional organ model to test the effect of pharmacologic agents on ischemia induced arrhythmias by inhibition of iPLA2β regulatory networks. […] Collectively, the inventor discovered herein a seminal discovery in that it defines and evidences for the first time in molecular detail a protein target, iPLA2β, for prevention and treatment of ventricular arrhythmias in ischemic zones and identifies a new way to screen for additional targets.

iPLA2β [1] = test: ESI/MS quantification of fatty acid release into effluent and accumulation of fatty acids and lysolipids in ischemic zones of Langendorf perfused hearts; set-up: species or system mouse; conditions: hearts from transgenic mice, 15 min LAD occlusion, BEL pretreatment
Description: A, Nonesterified fatty acid (NEFA) release obtained from 15 in of effluent from control or ischemic Langendorf hearts. *P<0.001 B, NEFA mass in ischemic heart tissue from WT and TGiPLA2β hearts. *P<0.01. C, Lysophosphatidylcholine (LPC) mass in ischemic tissue from WT and TGiPLA2β hearts. *P<0.0001. Release of NEFA into the effluents (a) and accumulation of NEFA (b) and LPC (c) in ischemic tissue from Langendorf-perfused hearts [WT (light bars) and TGiPLA2β (dark bars)] were measured in the absence or presence of LAD occlusion (ischemia) in the absence (−) or presence […] of BEL pretreatment as indicated.
To determine if ischemia activates iPLA2β catalyzed hydrolysis of lipids in intact myocardium, ESI/MS (electrospray—mass spectrometry) was utilized to quantify the release of fatty acids into the effluent and the accumulation of fatty acids and lysolipids in ischemic zones^19,20. After 15 min of LAD occlusion, increased release of fatty acids was present in the effluents from perfused hearts and both fatty acids and lysolipids accumulated in the ischemic zone of hearts from TG iPLA2β mice but not WT mice (FIG. 3a). […] The concurrent activation of iPLA2β during ischemia in conjunction with the generation of malignant ventricular arrhythmias and their rescue by inhibition of the expressed iPLA2β transgene formally fulfills traditional criteria for proof of a cause and effect relationship between two phenomena (i.e., malignant arrhythmias are not present when virtually no iPLA2β activity is present (WT mice) and malignant arrhythmias are manifest during activation of the expressed iPLA2β transgene by ischemia and arrhythmias are ablated by mechanism-based inhibition of expressed iPLA2β enzymic activity).
Electrospray Ionization Mass Spectrometry of Lipids from Wild type and Transgenic Mouse Myocardium. Lipids were extracted from mouse myocardium (˜50 mg) by a modified Bligh and Dyer technique utilizing 50 mM LiCl in the aqueous layer in the presence of internal standards selected based on their lack of demonstrable endogenous molecular ions in that region^19,20. ESI/MS analysis was performed utilizing a Finnigan TSQ-7000 Spectrometer as previously described^19,20.

iPLA2β [2] = target: T1, iPLA2β (Homo sapiens, UniProt O60733); conditions: racemic BEL; cited from earlier work
T1 sequence (O60733 1-806): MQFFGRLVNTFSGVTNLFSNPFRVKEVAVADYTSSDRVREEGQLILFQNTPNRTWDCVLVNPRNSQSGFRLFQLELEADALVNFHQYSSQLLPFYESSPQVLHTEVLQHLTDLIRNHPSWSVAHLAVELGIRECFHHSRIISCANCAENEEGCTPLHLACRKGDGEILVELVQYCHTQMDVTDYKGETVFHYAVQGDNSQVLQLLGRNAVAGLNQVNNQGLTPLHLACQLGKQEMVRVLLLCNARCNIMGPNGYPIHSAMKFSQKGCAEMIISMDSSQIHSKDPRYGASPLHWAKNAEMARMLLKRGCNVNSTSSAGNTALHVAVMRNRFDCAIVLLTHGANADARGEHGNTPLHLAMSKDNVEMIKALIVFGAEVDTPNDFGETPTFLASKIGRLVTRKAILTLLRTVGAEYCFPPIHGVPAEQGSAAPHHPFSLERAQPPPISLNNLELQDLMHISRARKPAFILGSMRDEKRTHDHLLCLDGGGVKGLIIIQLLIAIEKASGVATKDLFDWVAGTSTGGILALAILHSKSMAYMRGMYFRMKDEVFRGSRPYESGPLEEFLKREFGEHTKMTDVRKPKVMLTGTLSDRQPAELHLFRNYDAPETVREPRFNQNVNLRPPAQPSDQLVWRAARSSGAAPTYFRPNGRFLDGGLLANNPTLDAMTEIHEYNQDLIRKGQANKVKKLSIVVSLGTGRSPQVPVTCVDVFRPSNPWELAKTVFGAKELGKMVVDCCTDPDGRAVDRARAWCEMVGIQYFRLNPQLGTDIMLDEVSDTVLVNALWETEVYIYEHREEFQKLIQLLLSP

iPLA2γ = target: T2, iPLA2γ (Homo sapiens, UniProt Q9NP80); conditions: racemic BEL; cited from earlier work
T2 sequence (Q9NP80 1-782): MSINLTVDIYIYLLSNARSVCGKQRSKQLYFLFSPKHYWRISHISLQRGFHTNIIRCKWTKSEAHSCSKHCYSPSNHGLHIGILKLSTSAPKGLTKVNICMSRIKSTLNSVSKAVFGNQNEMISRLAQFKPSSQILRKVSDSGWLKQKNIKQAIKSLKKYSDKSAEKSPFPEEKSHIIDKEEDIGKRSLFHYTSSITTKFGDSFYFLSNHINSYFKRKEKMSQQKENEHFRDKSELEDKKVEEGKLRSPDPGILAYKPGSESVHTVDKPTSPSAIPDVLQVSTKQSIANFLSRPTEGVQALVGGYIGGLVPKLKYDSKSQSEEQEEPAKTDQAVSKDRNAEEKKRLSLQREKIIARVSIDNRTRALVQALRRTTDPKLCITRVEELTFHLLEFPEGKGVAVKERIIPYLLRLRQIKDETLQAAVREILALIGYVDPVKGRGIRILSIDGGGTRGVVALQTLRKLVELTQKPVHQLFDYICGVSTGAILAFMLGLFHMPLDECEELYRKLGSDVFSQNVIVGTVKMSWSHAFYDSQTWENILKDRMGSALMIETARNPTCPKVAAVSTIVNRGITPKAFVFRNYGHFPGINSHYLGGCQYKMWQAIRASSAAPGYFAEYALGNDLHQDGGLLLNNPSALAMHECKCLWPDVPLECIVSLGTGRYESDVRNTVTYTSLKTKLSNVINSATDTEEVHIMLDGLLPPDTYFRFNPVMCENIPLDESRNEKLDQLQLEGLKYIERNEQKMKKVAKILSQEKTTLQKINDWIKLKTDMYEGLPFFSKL

[3] = test system: Langendorf-perfused mouse hearts; test: Ischemia-induced ventricular arrhythmias (PVCs, VT) after LAD coronary ligation in isolated Langendorf-perfused mouse hearts; conditions: for frequency of PVCs (PVC frequency/5 min interval) after coronary ligation: BEL 10 μM pretreatment from 5 min before ligation, 30 min ischemia
Description: Data are presented as the +/− standard deviation. A, frequency of PVCs in wild type control mouse hearts (open bars, n=19) and in TGiPLA2β transgenic mouse hearts (closed bars, n=24) in the absence of BEL pretreatment (−BEL). Total PVCs were recorded in 5 minute intervals (0–5, 5–10, 10–15, 15–20, 20–25, and 25–30 min) after ligation of the LAD coronary artery in TGiPLA2β and wild-type control Langendorf hearts. The mean PVC frequency per interval (PVC frequency/5 min interval) was then plotted vs time interval after coronary ligation. […] B, The effect of BEL pretreatment (+BEL) on PVC frequency measured in 5 min intervals after coronary litigation. […] C, Frequency histogram showing total episodes of VT in TGiPLA2β transgenics (closed bars, n=24) vs wild-type control hearts (open bars, n=19) with (+) and without (−) BEL pretreatment.
To determine the role of iPLA2β in arrhythmogenesis during acute cardiac ischemia, a Langendorf perfused heart preparation was employed^6. […] The frequency of spontaneous PVCs was higher in hearts expressing iPLA2β compared with controls at each 5 minute time interval examined during 30 minutes of ischemia (p=0.0003 vs WT by MANOVA) (FIG. 4). Multiple episodes of non-sustained VT occurred in TGiPLA2β hearts (9 of 24 hearts) compared with a single episode in one WT heart (1 of 19 hearts) (p=0.002).
Isolated perfused mouse heart preparations were utilized as previously referenced (1). Briefly, a traditionally accepted ex vivo intact model of acute ischemia was studied. The left anterior descending (LAD) coronary artery was occluded in isolated perfused hearts. Mice were anesthetized with sodium pentobarbital (150 mg/kg IP), and their hearts were rapidly excised and placed in oxygenated Krebs-Henseleit buffer containing (in mmol/L): NaCl 118.3, KCl 2.7, MgSO4 1.0, KH2PO4 1.4, NaHCO3 29.0, CaCl2 3.4, and glucose 10, plus insulin 70 mU/L and BSA 2.8%, at 37° C. Hearts were perfused by retrograde aortic flow with oxygenated buffer at 37° C. Flow rates were adjusted to maintain constant perfusion pressures of 45 to 50 mm Hg. Hearts were simultaneously superfused in a bath containing oxygenated buffer at 37° C. to maintain constant temperature.(1) Circulation 101:547–552 (2000).
Ischemic Studies with Isolated Langendorf-Perfused Mouse Hearts. Ventricular tachyarrhythmias induced by acute ischemia were characterized with use of an isolated, Langendorf-perfused heart preparation as described previously by Lerner et al^6 which is incorporated herein in its entirety by reference. Frequencies of spontaneous arrhythmias (PVCs, and episodes of VT) were counted for 30 min after coronary ligation and tablulated as PVC frequency per 5 minute intervals. A run of ventricular tachycardia was defined as 10 or more beats with a cycle length <100 msec. After 30 min, hearts were perfused through the aortic catheter with 1% Evans blue dye. To determine the effects of BEL on induction of arrhythmias after ischemia, hearts were perfused with buffer containing 10 μM BEL beginning 5 min before coronary ligation and during ischemia. All studies were randomized and blinded.

iPLA2β [4] = test: Acylcarnitine content of ischemic zone of Langendorf perfused hearts by ESI mass spectrometry; set-up: species or system mouse; conditions: BEL 10 uM for 5 min, 15 min ischemia
Description: The ischemia-induced increase in acylcarnitines in wild type mice is inhibited by BEL. Moreover, iPLA2β transgenic mice sustain a dramatic increase in acylcarnitine content during myocardial ischemia in comparison to wild type mice.
Next, ischemia was induced by ligating a marginal branch of the LAD coronary artery and ischemia was induced for 15 minutes. Aliquots of the ischemic zone were taken and rapidly frozen. After addition of internal standard, aliquots of frozen tissue were extracted and analyzed for acylcarnitine content by ESI mass spectrometry by comparisons to standard utilizing methods previously described.

ischemic hearts = conditions: previously shown; cited from earlier work
[5] = listed as phospholipase A2 mechanism-based inhibitor
[6] = TGiPLA2β hearts, BEL 10 μM pretreatment, LAD ligation

| Compound | infarct size (ischemic myocardium) | accumulation of lysolipids in ischemic zones (iPLA2β [1]) | release of fatty acids (iPLA2β [1]) | accumulation of lysolipids in ischemic zones (iPLA2β [1]; [5]) | release of fatty acids (iPLA2β [1]; [5]) | inhibition of iPLA2β (iPLA2β [2]) | inhibition of iPLA2γ (iPLA2γ) | frequency of PVCs (PVC frequency/5 min interval) after coronary ligation ([3]; TGiPLA2β hearts) | episodes of ventricular tachycardia / malignant ventricular tachyarrhythmias [3, 6] | hearts with VT / hearts studied [3, 6] | episodes of ventricular tachycardia / malignant ventricular tachyarrhythmias ([3]; TGiPLA2β hearts, BEL 10 μM pretreatment, LAD ligation, listed as phospholipase A2 mechanism-based inhibitor) | frequency of PVCs (PVC frequency/5 min interval) after coronary ligation ([3]; WT control hearts) | ischemia-induced increase in acylcarnitines (iPLA2β [4]; iPLA2β transgenic hearts) | ischemia-induced increase in acylcarnitines (iPLA2β [4]; wild type (control) hearts) | arrhythmias in ischemic hearts (ischemic hearts) |
| --- | --- | --- | --- | --- | --- | --- | --- | --- | --- | --- | --- | --- | --- | --- | --- |
| O=C1O/C(=C/Br)CCC1c1cccc2ccccc12 (stereo not drawn) [BEL, (E)-6-(bromomethylene)-3-(1-naphthalenyl)-2H-tetrahydropyran-2-one] | reduced | nearly completely ablated | nearly completely ablated | completely ablated | completely ablated | inhibits | inhibits | inhibited the frequency of PVCs; also recorded: significant decrease in PVC frequency | completely abolished VT; also recorded: rescue of ischemia-induced ventricular tachyarrhythmias; also recorded: significant reduction of VT episodes | 0/10 | rescued transgenic hearts from malignant ventricular dysrhythmias | inhibited the frequency of PVCs; also recorded: reduced PVC frequency | inhibitable; also recorded: inhibited | major portion of acyl carnitine accumulation is BEL inhibitable; also recorded: inhibited |  |
| CCOC(=O)[C@@]1(CCCCCCOc2ccc(Cl)cc2)CO1 [Etomoxir] |  |  |  |  |  |  |  |  |  |  |  |  |  |  | inhibit arrhythmias |
